Patent US5453438A, “Hydroxamic acid based collagenase inhibitors” (British Biotech Pharmaceuticals Limited, priority 1989, dated 1995)

Molecular target: collagenase
Assay: Collagenase inhibition activity (acetylated 14C collagen hydrolysis, Cawston and Barrett)
Format: biochemical
Settings: 37°, 16 hours, pH 7.5, read-out: IC50 (inhibitor concentration effecting 50% inhibition of the collagenase)
Experimental: The potency of compounds of general formula I to act as inhibitors of collagenase (a metalloprotease involved in tissue degradation) was determined by the procedure of Cawston and Barrett, (Anal. Biochem., 99, 340-345, 1979) and their potency to act as inhibitors of stromelysin was determined using the procedure of Cawston et al (Biochem. J., 195, 159-165 1981), both of which techniques are to be described more fully in the examples and, to the extent that the law allows, are incorporated by reference herein.
The potency of compounds of general formula I to act as inhibitors of collagenase (a metalloprotease involved in tissue degradation) was determined by the procedure of Cawston and Barrett, (Anal. Biochem., 99, 340-345, 1979), hereby incorporated by reference, whereby a 1 mM solution of the inhibitor being tested or dilutions thereof was incubated at 37° for 16 hours with collagen and collagenase (buffered with 25 mM Hepes, pH 7.5 containing 5 mM CaCl2, 0.05% Brij 35 and 0.02% NAN3). The collagen was acetylated ^14C collagen prepared by the method of Cawston and Murphy (Methods in Enzymology, 80, 711, 1981), hereby incorporated by reference. The samples were centrifuged to sediment undigested collagen and an aliquot of the radioactive supernatant removed for assay on a scintillation counter as a measure of hydrolysis. The collagenase activity in the presence of 1 mM inhibitor, or a dilution thereof, was compared to activity in a control devoid of inhibitor and the results reported below as that inhibitor concentration effecting 50% inhibition of the collagenase (IC50).

Row | Compound | IC50
1 | CC(=O)NCCNC(=O)[C@H](Cc1ccccc1)NC(=O)[C@@H](CC(=O)NO)CC(C)C [Example 4, [4-(N-Hydroxyamino)-2R-isobutylsuccinyl]-L-phenylalanine-N-(2-N-acetylethyl) amide] | 90 nM
2 | CC(C)C[C@H](CC(=O)NO)C(=O)N[C@@H](Cc1ccccc1)C(=O)N(C)CCO [Example 2, [4-(N-Hydroxyamino)-2R-isobutylsuccinyl]-L-phenylalanine-N-(2-hydroxyethyl)-N-methylamide] | 200 nM
3 | CCSCCNC(=O)[C@H](Cc1ccccc1)NC(=O)[C@@H](CC(=O)NO)CC(C)C [Example 3, [4-(N-Hydroxyamino)-2R-isobutylsuccinyl]-L-phenylalanine-N-(2-ethylthioethyl) amide] | 20 nM
